Measurements from patent US20240217990A1 (Gilead Sciences, Inc., priority 2021, published 2024).

Legend:
TLR8 = target: T1, TLR8 (Homo sapiens, UniProt Q9NR97); assay: TLR8 human PBMC cell-based assay (antagonist, Compound A stimulated cytokine release); conditions: human PBMCs; TLR8 agonist Compound A 800 nM, 6 hours; cytokines (TNFa and IL 12p40) in supernatant; read-out: TLR-8 EC50
T1 construct: Human peripheral blood mononuclear cells (PBMCs) consist of lymphocytes, monocytes and dendritic cells that express TLR7, TLR8 and TLR9; endogenous in cells; host or cells: cryopreserved human PBMCs from healthy donors
T1 sequence (Q9NR97 27-1041): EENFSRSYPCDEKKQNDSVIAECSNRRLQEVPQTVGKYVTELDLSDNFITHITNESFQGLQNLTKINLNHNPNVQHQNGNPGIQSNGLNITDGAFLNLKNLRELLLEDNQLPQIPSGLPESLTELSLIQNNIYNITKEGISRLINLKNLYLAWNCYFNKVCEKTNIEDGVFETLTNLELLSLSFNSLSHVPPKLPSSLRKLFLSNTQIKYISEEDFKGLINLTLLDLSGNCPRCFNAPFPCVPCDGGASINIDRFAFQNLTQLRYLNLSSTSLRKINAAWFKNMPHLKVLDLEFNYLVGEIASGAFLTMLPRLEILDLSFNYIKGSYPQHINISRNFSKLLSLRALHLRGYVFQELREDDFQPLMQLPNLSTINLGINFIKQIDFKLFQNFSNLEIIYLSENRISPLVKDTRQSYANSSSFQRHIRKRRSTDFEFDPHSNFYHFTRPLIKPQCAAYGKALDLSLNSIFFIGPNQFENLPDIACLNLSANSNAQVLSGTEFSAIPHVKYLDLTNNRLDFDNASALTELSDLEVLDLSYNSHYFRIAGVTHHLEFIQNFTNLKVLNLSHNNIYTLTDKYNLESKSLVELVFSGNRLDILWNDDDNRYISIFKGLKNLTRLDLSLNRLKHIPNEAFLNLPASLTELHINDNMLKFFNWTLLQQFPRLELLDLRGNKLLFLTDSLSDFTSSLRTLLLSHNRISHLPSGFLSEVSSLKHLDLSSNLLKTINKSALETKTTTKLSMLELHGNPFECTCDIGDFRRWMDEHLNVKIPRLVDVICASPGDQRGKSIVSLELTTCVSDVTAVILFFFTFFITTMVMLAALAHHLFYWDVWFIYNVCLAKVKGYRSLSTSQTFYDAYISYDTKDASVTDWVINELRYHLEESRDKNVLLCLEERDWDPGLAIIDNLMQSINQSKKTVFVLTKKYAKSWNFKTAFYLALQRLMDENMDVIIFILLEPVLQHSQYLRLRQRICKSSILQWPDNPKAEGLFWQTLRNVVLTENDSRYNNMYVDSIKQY
Description: (§1) Human peripheral blood mononuclear cells (PBMCs) consist of lymphocytes, monocytes and dendritic cells that express TLR7, TLR8 and TLR9. These cells respond to TLR7, TLR8 and TLR9 ligand stimulation and produce cytokines and chemokines in vitro and in vivo. Human PBMCs are therefore suitable to be used in a cell-based assay to assess the in vitro potency of a TLR 7, 8, and/or 9 antagonist. The result is expected to be more translatable to the pharmacodynamics response in vivo than cell line-based assays.
Cryopreserved human PBMCs from healthy donors were thawed and resuspended in RPMI-1640 media with L-glutamine (Corning) supplemented with 10% Fetal Bovine Serum (Hyclone) and 1X Penicillin-Streptomycin (Corning). After counting, the cell density was adjusted to 2 million cells/ml and incubated for 1 hour at 37° C., 5% CO2 for recovery. Following the recovery, the cells were plated by adding 50 μl per well (100,000 cells) to 384-well cell culture plates (Greiner) containing 250 nl of test antagonists in 100% DMSO per well, in a 10 points dose response in quadruplicates. PBMCs were incubated in the presence of antagonists for one hour at 37° C., 5% CO2 before being stimulated with TLR8 agonist. Compound A (Gilead Sciences, U.S. Pat. No. 10,285,990) was used as the TLR8 agonist at a final concentration of 800 nM. PBMCs were incubated in the presence of antagonist and the TLR8 agonist for an additional 6 hours at 37° C., 5% CO2. At the end of the incubation, the cell culture plates were centrifuged at 500 g for 5 min, and the cell culture supernatant was collected. The level of cytokines (TNFa and IL 12p40) in the supernatant was measured by electrochemiluminescence immunoassays (Mesoscale Discovery) following manufacturer's recommended protocols. The level of cytokine measured was plotted against the antagonist concentration and fitted to a sigmoidal function to determine the EC50, which are shown below in Table 11.

TLR7 = target: T2, TLR7 (Homo sapiens, UniProt Q9NYK1); assay: TLR7 human PBMC cell-based assay (antagonist, GS-986 stimulated cytokine release); conditions: human PBMCs; TLR7 agonist GS-986 400 nM, 6 hours; cytokines (IL-6 and IFNα) in supernatant; read-out: TLR-7 EC50
T2 construct: Human peripheral blood mononuclear cells (PBMCs) consist of lymphocytes, monocytes and dendritic cells that express TLR7, TLR8 and TLR9; endogenous in cells; host or cells: cryopreserved human PBMCs from healthy donors
T2 sequence (Q9NYK1 27-1049): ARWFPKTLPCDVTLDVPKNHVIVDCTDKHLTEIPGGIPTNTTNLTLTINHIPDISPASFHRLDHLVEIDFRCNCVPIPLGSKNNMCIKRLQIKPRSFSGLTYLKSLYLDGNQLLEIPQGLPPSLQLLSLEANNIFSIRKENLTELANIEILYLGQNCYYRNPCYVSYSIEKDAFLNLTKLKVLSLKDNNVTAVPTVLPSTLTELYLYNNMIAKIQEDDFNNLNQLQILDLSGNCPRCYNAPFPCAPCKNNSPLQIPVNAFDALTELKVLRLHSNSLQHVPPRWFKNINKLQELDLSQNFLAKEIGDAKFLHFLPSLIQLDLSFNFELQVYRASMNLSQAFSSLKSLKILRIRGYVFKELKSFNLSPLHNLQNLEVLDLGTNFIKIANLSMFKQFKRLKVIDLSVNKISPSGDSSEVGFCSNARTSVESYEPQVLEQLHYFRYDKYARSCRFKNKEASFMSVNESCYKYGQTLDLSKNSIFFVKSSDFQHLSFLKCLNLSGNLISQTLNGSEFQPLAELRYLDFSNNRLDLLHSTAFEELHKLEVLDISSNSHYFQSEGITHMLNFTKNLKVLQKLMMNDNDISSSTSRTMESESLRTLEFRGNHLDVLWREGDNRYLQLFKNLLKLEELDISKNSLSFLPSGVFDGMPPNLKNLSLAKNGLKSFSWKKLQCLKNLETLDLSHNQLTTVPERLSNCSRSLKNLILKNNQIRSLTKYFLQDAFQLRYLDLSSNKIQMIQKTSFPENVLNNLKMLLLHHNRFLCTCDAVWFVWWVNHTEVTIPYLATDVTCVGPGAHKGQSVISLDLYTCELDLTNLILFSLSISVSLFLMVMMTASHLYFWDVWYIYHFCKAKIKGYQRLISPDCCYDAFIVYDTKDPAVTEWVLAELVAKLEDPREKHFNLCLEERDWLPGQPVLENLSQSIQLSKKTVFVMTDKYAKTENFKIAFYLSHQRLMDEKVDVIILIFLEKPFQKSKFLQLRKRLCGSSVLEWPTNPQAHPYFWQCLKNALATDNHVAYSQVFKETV
Description: as §1
Cryopreserved human PBMCs from healthy donors were thawed and resuspended in RPMI-1640 media with L-glutamine (Corning) supplemented with 10% Fetal Bovine Serum (Hyclone) and 1× Penicillin-Streptomycin (Corning). After counting, the cell density was adjusted to 2 million cells/ml and incubated for 1 hour at 37° C., 5% CO2 for recovery. Following the recovery, the cells were plated by adding 50 μl per well (100,000 cells) to 384-well cell culture plates (Greiner) containing 250 nl of test antagonists in 100% DMSO per well, in a 10 points dose response in quadruplicates. PBMCs were incubated in the presence of test antagonists for one hour at 37° C., 5% CO2 before being stimulated with a TLR7 or TLR9agonist. GS-986 (Gilead Sciences) was used as the TLR7 agonist at a final concentration of 400 nM. ODN-2216 (InvivoGen) was used as the TLR9 agonist at a final concentration of 3 μM. PBMCs were incubated in the presence of the test antagonist and the TLR7 (or TLR9) agonist for an additional 6 hours at 37° C., 5% CO2. At the end of the incubation, the cell culture plates were centrifuged at 500 g for 5 min, and the cell culture supernatant was collected. The level of cytokines (IL-6 and IFNα) in the supernatant was measured by electrochemiluminescence immunoassays (Mesoscale Discovery) following manufacturer's recommended protocols. The level of cytokine measured was plotted against the test antagonist concentration and fitted to a sigmoidal function to determine the EC50, which are shown below in Table 11.

EC50 (TLR8)	EC50 (TLR7)	Structure (SMILES)
2.1 nM	0.6 nM	CCc1c(-c2cc(C)c3ncnn3c2)[nH]c2cc(-c3nc(N4CCNCC4)no3)sc12 [Example 47]
5.4 nM	1 nM	Cc1cc(-c2[nH]c3cc(-c4nnc(C5CCNCC5)s4)sc3c2C(C)C)cn2ncnc12 [Example 48, 6-isopropyl-5-(8-methyl-[1,2,4]triazolo[1,5-a]pyridin-6-yl)-2-(5-(piperidin-4-yl)-1,3,4-thiadiazol-2-yl)-4H-thieno[3,2-b]pyrrole]
3.2 nM	0.4 nM	Cc1cc(-c2[nH]c3cc(-c4nnc(N5CCNCC5)s4)sc3c2C(C)C)cn2ncnc12 [Example 49]
4.6 nM	0.2 nM	Cc1cc(-c2[nH]c3cc(C4=NC5(CCNCC5)CO4)sc3c2C(C)C)cn2ncnc12 [Example 50, 2-(6-isopropyl-5-(8-methyl-[1,2,4]triazolo[1,5-a]pyridin-6-yl)-4H-thieno[3,2-b]pyrrol-2-yl)-3-oxa-1,8-diazaspiro[4.5]dec-1-ene]
61.4 nM	20.9 nM	Cc1cc(-c2[nH]c3cc(-c4ccc(N5CCNCC5)nc4)sc3c2C(C)C)cc(C)n1 [Example 51, 5-(2,6-dimethyl-4-pyridyl)-6-isopropyl-2-(6-piperazin-1-yl-3-pyridyl)-4F1-thieno[3,2-b]pyrrole]
16 nM	36.6 nM	Cc1cc(-c2[nH]c3cc(-c4nnc(C5CCNCC5)o4)sc3c2C(C)C)cc(C)n1 [Example 52, 2-[5-(2,6-dimethyl-4-pyridyl)-6-isopropyl-4H-thieno[3,2-b]pyrrol-2-yl]-5-(4-piperidyl)-1,3,4-oxadiazole]
16 nM	74.7 nM	Cc1cc(-c2[nH]c3cc(-c4nnc(N5CCNCC5)o4)sc3c2C(C)C)cc(C)n1 [Example 53]
7 nM	3.7 nM	Cc1cc(-c2[nH]c3cc(-c4nc(N5CCNCC5)no4)sc3c2C(C)C)cc(C)n1 [Example 54, 5-[5-(2,6-dimethyl-4-pyridyl)-6-isopropyl-4H-thieno[3,2-b]pyrrol-2-yl]-3-piperazin-1-yl-1,2,4-oxadiazole]
14.9 nM	7.6 nM	Cc1cc(-c2[nH]c3cc(-c4nc(C5CCNCC5)no4)sc3c2C(C)C)cc(C)n1 [Example 55]
10.2 nM	0.5 nM	Cc1cc(-c2[nH]c3cc(C(=O)N(C)C4CCNCC4)sc3c2C(C)C)cn2ncnc12 [Example 56, 6-isopropyl-N-methyl-5-(8-methyl-[1,2,4]triazolo[1,5-a]pyridin-6-yl)-N-(4-piperidyl)-4H-thieno[3,2-b]pyrrole-2-carboxamide]
12.7 nM	1.7 nM	Cc1cc(-c2[nH]c3cc(C(=O)N(C)[C@@H]4CNC[C@@H]4F)sc3c2C(C)C)cn2ncnc12 [Example 57]
21.1 nM	16.6 nM	Cc1cc(-c2[nH]c3cc(C(=O)N(C)[C@H]4CNC[C@@H]4F)sc3c2C(C)C)cn2ncnc12 [Example 58]
15.4 nM	24.1 nM	Cc1cc(-c2[nH]c3cc(C(=O)N4C[C@H](N)C[C@H](C(F)(F)F)C4)sc3c2C(C)C)cn2ncnc12 [Example 59]
30.8 nM	4.1 nM	Cc1cc(-c2[nH]c3cc(C(=O)N(C)[C@@H]4CNC[C@H]4F)sc3c2C(C)C)cn2ncnc12 [Example 60]
17.4 nM	7.9 nM	Cc1cc(-c2[nH]c3cc(C(=O)N(C)[C@H]4CNC[C@H]4F)sc3c2C(C)C)cn2ncnc12 [Example 61]
5.7 nM	5.5 nM	CCc1c(-c2cc(C)c3ncnn3c2)[nH]c2cc(C(=O)N3CCNCC3)sc12 [Example 62, [6-ethyl-5-(8-methyl-[1,2,4]triazolo[1,5-a]pyridin-6-yl)-4H-thieno[3,2-b]pyrrol-2-yl]-piperazin-1-yl-methanone]
15.6 nM	0.7 nM	CCc1c(-c2cc(C)c3ncnn3c2)[nH]c2cc(C(=O)N(C)C3CCNCC3)sc12 [Example 63]
3.3 nM	0.9 nM	COc1cc(-c2[nH]c3cc(C(=O)N4CCNCC4)sc3c2C(C)C)cn2ncnc12 [Example 64, (6-isopropyl-5-(8-methoxy-[1,2,4]triazolo[1,5-a]pyridin-6-yl)-4H-thieno[3,2-b]pyrrol-2-yl)(piperazin-1-yl)methanone]
5.4 nM	1.8 nM	Cc1cc(-c2[nH]c3cc(C(=O)N4CCNCC4)sc3c2C(C)C)cn2nnnc12 [Example 65]
16.1 nM	25.7 nM	CC(C)c1c(-c2ccc3ncnn3c2)[nH]c2cc(C(=O)N3CCNCC3)sc12 [Example 66]
